Laboratory results taken from publication PMC6514812, “[^18F]Fluoroethyltriazolyl Monocyclam Derivatives as Imaging Probes for the Chemokine Receptor CXCR4” (Molecules, 2019).

Experiments:
PC3-CXCR4 cells [1] = assay: Internalization in PC3-CXCR4 cells; format: cell-based, human; details: after 135 min incubation
Procedure: Internalization studies were performed for [^18F]RPS-534 and [^18F]RPS-547 in a time dependent manner. PC3-CXCR4 cells were plated as described above in 12-well plates and incubated for 48 h prior to the experiment. The media was exchanged and [^18F]RPS-534 or [^18F]RPS-547 (10^−5 μM; approximately 400 kBq) was added to each well. All experiments were performed in triplicate. […] Then the media was removed under suction at the corresponding temperature, and the cells washed with 1 mL PBS. Cell surface-bound activity was collected by two successive 5 min incubations of 0.5 mL of a 50 mM glycine buffer (pH = 2.8) performed at 4 °C or 37 °C. The cells were then washed with 1 mL ice-cold PBS and detached with 1 mL ice cold 1 M NaOH. Detached cells were collected and counted along with the washes. An aliquot of the administered radioactivity (10% IA) was also counted and used for quantification. The activity found in the NaOH fractions of the 4 °C plates was subtracted from the activities of the fractions at 37 °C to correct for non-specific binding. Internalized activity was expressed as the fraction of activity in the NaOH fraction relative to the total activity added.

CXCR4 [2] = target: T1, CXCR4 (Homo sapiens, UniProt P61073); assay: Saturation binding assay in PC3-CXCR4 cells
T1 construct: expressed in transfected cells; host or cells: PC3 (human prostate cancer) cells stably transduced with CXCR4
Procedure: To determine the dissociation constants, saturation binding assays were performed in the PC3-CXCR4 cells. The cells were plated as described above, and approximately 5 nM of the radioligand was added to each well. Then the corresponding non-radioactive ligand was added to give a final concentration in the range 0.001–10,000 nM. A total of eight concentrations were tested, and each concentration was tested in triplicate. The samples were washed and counted as described above. Non-specific binding was subtracted, and Kd values were determined by performing a nonlinear one site binding curve fit with equation y = (Bmax · x)/(Kd + x). Values are expressed as Kd ± standard deviation (Supplemental Data, Figure S8).

CXCR4 [3] = target: T1, CXCR4; assay: Competition binding assay vs [^18F]RPS-544 in PC3-CXCR4 cells; details: approx. 5 pM [^18F]RPS-544; p = 0.85
Procedure: (§1) PC3-CXCR4 cells were plated in 12-well plates at a density of 500,000 cells per well and incubated for 48 h at 37 °C/5% CO2. Prior to the binding assay the cells were incubated in fresh media and 370–555 kBq of [^68Ga]Pentixafor or [^18F]RPS-544 was added to each well. The corresponding concentration of [^68Ga]Pentixafor in each well was 100 nM, and the concentration of [^18F]RPS-544 was approximately 5 pM. Then non-radioactive ligands were added to give a final ligand concentration in the range 0.001–10,000 nM. A total of eight concentrations were studied, and each concentration was tested in triplicate. The cells were incubated for 60 min at 37 °C/5% CO2. The media was removed under suction, the cells were washed with cold PBS 1X and detached and transferred to tubes for counting in 1 M NaOH. The cells were counted in a Wizard^2 Gamma Counter (PerkinElmer, Waltham, MA, USA). Non-specific binding was subtracted, and the IC50 values were determined by assuming a simple competitive binding interaction and fitting the data to a sigmoidal Hill plot in Origin 9.0 (OriginLab, Northampton, MA, USA). Potencies are expressed as IC50 ± standard deviation (Supplemental Data, Figure S7).

[4] = Biodistribution in mice bearing bilateral PC3-WT/PC3-CXCR4 xenograft tumors; format: in vivo, BALB/c mice
Procedure: (§2) All animal studies were approved by the Institutional Animal Care and Use Committee of Weill Cornell Medicine (Protocol Number: 2015-0066) and were undertaken in accordance with the guidelines set forth by the USPHS Policy on Humane Care and Use of Laboratory Animals. Animals were housed under standard conditions in approved facilities with 12 h light/dark cycles. Food and water was provided ad libitum throughout the course of the studies. Hairless 6-to-8-week old male BALB/c inbred athymic nude mice (Jackson Laboratory, Bar Harbor, ME, USA) were inoculated bilaterally with 0.2 mL of a 1:1 mixture of 10^7 PC3-CXCR4 cells in PBS and Matrigel (Corning, Tewksbury, MA, USA) subcutaneously in the left shoulder and 0.2 mL of a 1:1 mixture of 10^7 PC3-WT cells in PBS and Matrigel subcutaneously in the right shoulder. Imaging and biodistribution studies were performed three weeks post-implantation, when tumors were approximately 100–300 mm^3.
(§3) For the biodistribution studies, tumor-bearing animals (n = 5/compound/time point) were injected intravenously with 50–100 μL of a 9% v/v EtOH/saline solution containing approximately 1.1 MBq of the radioligand. […] The mice were euthanized at 1 or 2 h p.i. and tissues including blood, heart, lungs, liver, small intestine, large intestine, stomach (with contents), spleen, pancreas, kidneys, muscle, bone, PC3-WT tumors, PC3-CXCR4 tumors, and tail were collected. All organs were weighed and placed in test tubes for counting in a Wizard^2 Gamma Counter (PerkinElmer, Waltham, MA, USA). For comparison, 1% injected activity standards were prepared and counted along with the tissue samples. The tails were counted to correct for any dose extravasation. Activity in each tissue was corrected for decay and for injected activity and expressed as percent injected dose per gram of tissue (%ID/g) ± standard error.

[5] = tested on: PC3-CXCR4 xenograft tumors; assay: as above; format: in vivo, BALB/c mice
Procedure: as §2, §3

PC3-CXCR4 cells [6] = assay: Cell-associated activity in PC3-CXCR4 cells; format: cell-based, human; details: 1 h
Procedure: Maximum cell-associated activity was calculated by subtracting the cell uptake of the radioactive ligand at the highest non-radioactive ligand concentration of 10 µM (which we considered to be non-specific uptake/binding) from the cell uptake at the lowest non-radioactive ligand concentration of 10^−5 µM.

CXCR4 [7] = target: T1, CXCR4; assay: Competition binding assay vs [^68Ga]Pentixafor in PC3-CXCR4 cells
Procedure: as §1

[8] = 1 h p.i., blocked by co-injection of 5 mg/kg AMD-3100

T1 sequence (P61073 whole entry): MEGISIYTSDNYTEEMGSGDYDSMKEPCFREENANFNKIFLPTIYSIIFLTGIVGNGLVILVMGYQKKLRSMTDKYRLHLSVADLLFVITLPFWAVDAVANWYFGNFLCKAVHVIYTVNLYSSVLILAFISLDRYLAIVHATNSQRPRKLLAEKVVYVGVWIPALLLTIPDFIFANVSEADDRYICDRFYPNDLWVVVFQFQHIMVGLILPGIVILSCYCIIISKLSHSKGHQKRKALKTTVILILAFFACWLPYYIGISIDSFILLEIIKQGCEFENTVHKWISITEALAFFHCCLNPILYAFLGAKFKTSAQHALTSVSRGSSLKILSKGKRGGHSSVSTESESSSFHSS

In the case of `FCCn1cc(-c2cc(CN3CCCNCCNCCCNCC3)ccc2CNCc2ccccn2)nn1` [RPS-534], the internalized activity (PC3-CXCR4 cells [1]) is reported as “approximately 2 %IA”, the “internalized share of total cell-associated activity” value (PC3-CXCR4 cells [1]) is reported as “approximately 7%” and the Kd (CXCR4 [2]; saturation binding, PC3-CXCR4 cells) is reported as 176 ± 30 nM. For the same molecule, the “Hill Slope, Saturation Binding Experiment” value (CXCR4 [2]; value ± SD) was 1.05 ± 0.15, the “IC50 vs [^18F]RPS-544 compared with IC50 vs [^68Ga]Pentixafor” value (CXCR4 [3]) was “not significantly different” and the Blood tissue activity ([4]; 1 h p.i.) was 0.30±0.08 %ID/g. The Blood tissue activity [4, 8] was 0.26±0.15 %ID/g, the Blood tissue activity ([4]; 2 h p.i.) was 0.08±0.02 %ID/g and the Bone tissue activity ([5]; 1 h p.i.) was 1.44±0.04 %ID/g. For the same molecule, the Heart tissue activity ([5]; 1 h p.i.) was 0.25±0.01 %ID/g, the Kidneys tissue activity ([5]; 1 h p.i.) was 7.43±0.96 %ID/g and the “Large Intestine tissue activity” value ([5]; 1 h p.i.) was 0.29±0.06 %ID/g. It also gave a Liver tissue activity ([5]; 1 h p.i.) of 19.14 ± 0.42 %ID/g, a Lungs tissue activity ([5]; 1 h p.i.) of 1.01±0.09 %ID/g and a Muscle tissue activity ([5]; 1 h p.i.) of 0.19±0.03 %ID/g. For the same molecule, the “PC3-CXCR4 Tumor Uptake” value ([5]; 1 h p.i.) was 7.20 ± 0.30 %ID/g, the “PC3-CXCR4 Tumor-to-Tissue Ratio Blood” value ([5]; 1 h p.i.) was 27.5 ± 0.4 and the “PC3-CXCR4 Tumor-to-Tissue Ratio Bone” value ([5]; 1 h p.i.) was 5.7 ± 0.4. The “PC3-CXCR4 Tumor-to-Tissue Ratio Kidneys” value ([5]; 1 h p.i.) was 1.1 ± 0.4, the “PC3-CXCR4 Tumor-to-Tissue Ratio Liver” value ([5]; 1 h p.i.) was 0.4 ± 0.2 and the “PC3-CXCR4 Tumor-to-Tissue Ratio Lungs” value ([5]; 1 h p.i.) was 8.0 ± 0.4. For the same molecule, the “PC3-CXCR4 Tumor-to-Tissue Ratio Muscle” value ([5]; 1 h p.i.) was 42.4 ± 0.1, the “PC3-CXCR4 Tumor-to-Tissue Ratio PC3-WT” value ([5]; 1 h p.i.) was 2.5 ± 0.4 and the PC3-WT tumor activity ([5]; 1 h p.i.) was 2.85±0.22 %ID/g. For the same molecule, the Pancreas tissue activity ([5]; 1 h p.i.) was 0.28±0.02 %ID/g, the “Small Intestine tissue activity” value ([5]; 1 h p.i.) was 3.67±0.44 %ID/g and the Spleen tissue activity ([5]; 1 h p.i.) was 2.49±0.04 %ID/g. It also gave a Stomach tissue activity ([5]; 1 h p.i.) of 0.16±0.03 %ID/g, a Bone tissue activity [5, 8] of 0.44±0.15 %ID/g and a Heart tissue activity [5, 8] of 0.13±0.04 %ID/g. The Kidneys tissue activity [5, 8] was 5.10±0.33 %ID/g, the “Large Intestine tissue activity” value [5, 8] was 0.40±0.58 %ID/g and the Liver tissue activity [5, 8] was 12.01 ± 4.67 %ID/g. The Lungs tissue activity [5, 8] was 0.48±0.08 %ID/g, the Muscle tissue activity [5, 8] was 0.17±0.16 %ID/g and the PC3-CXCR4 tumor activity [5, 8] was 2.01±0.93 %ID/g. For the same molecule, the PC3-WT tumor activity [5, 8] was 1.21±0.47 %ID/g, the Pancreas tissue activity [5, 8] was 0.32±0.01 %ID/g and the “Small Intestine tissue activity” value [5, 8] was 5.35±1.74 %ID/g. It also gave a Spleen tissue activity [5, 8] of 0.12±0.03 %ID/g, a Stomach tissue activity [5, 8] of 0.14±0.11 %ID/g and a Bone tissue activity ([5]; 2 h p.i.) of 1.26±0.06 %ID/g. The Heart tissue activity ([5]; 2 h p.i.) was 0.14±0.02 %ID/g, the Kidneys tissue activity ([5]; 2 h p.i.) was 5.05±0.80 %ID/g and the “Large Intestine tissue activity” value ([5]; 2 h p.i.) was 4.60±0.57 %ID/g. It also gave a Liver tissue activity ([5]; 2 h p.i.) of 18.60±1.74 %ID/g, a Lungs tissue activity ([5]; 2 h p.i.) of 0.59±0.03 %ID/g and a Muscle tissue activity ([5]; 2 h p.i.) of 0.11±0.03 %ID/g. The “PC3-CXCR4 Tumor-to-Tissue Ratio Blood” value ([5]; 2 h p.i.) was 51.1 ± 0.2, the “PC3-CXCR4 Tumor-to-Tissue Ratio Bone” value ([5]; 2 h p.i.) was 3.5 ± 0.2 and the “PC3-CXCR4 Tumor-to-Tissue Ratio Kidneys” value ([5]; 2 h p.i.) was 0.9 ± 0.2. The “PC3-CXCR4 Tumor-to-Tissue Ratio Liver” value ([5]; 2 h p.i.) was 0.2 ± 0.1, the “PC3-CXCR4 Tumor-to-Tissue Ratio Lungs” value ([5]; 2 h p.i.) was 7.1 ± 0.2 and the “PC3-CXCR4 Tumor-to-Tissue Ratio Muscle” value ([5]; 2 h p.i.) was 38.8 ± 0.2. The “PC3-CXCR4 Tumor-to-Tissue Ratio PC3-WT” value ([5]; 2 h p.i.) was 2.5 ± 0.2, the PC3-CXCR4 tumor activity ([5]; 2 h p.i.) was 4.31±0.47 %ID/g and the PC3-WT tumor activity ([5]; 2 h p.i.) was 1.66±0.08 %ID/g. For the same molecule, the Pancreas tissue activity ([5]; 2 h p.i.) was 0.18±0.06 %ID/g, the “Small Intestine tissue activity” value ([5]; 2 h p.i.) was 1.53±0.25 %ID/g and the Spleen tissue activity ([5]; 2 h p.i.) was 1.90±0.23 %ID/g. For the same molecule, the Stomach tissue activity ([5]; 2 h p.i.) was 0.12±0.05 %ID/g, the “reduction of tumor activity by blocking” value ([5]; blocking dose 5 mg/kg AMD-3100) was “approximately 70%” and the “PC3-CXCR4 tumor uptake relative to [^18F]RPS-544” value ([5]; mouse, in vivo) was 2 fold. For the same molecule, the tumor-to-heart ratio ([5]; time not restated, follows the 1 h p.i. tumor-to-blood ratio) was 28.8 ± 0.3, the “Cell-Associated Activity” value (PC3-CXCR4 cells [6]) was 18.5 ± 3.7 %IA and the “decrease in affinity relative to RPS-544” value (CXCR4 [7]) was 30 fold. The IC50 (CXCR4 [7]; vs 100 nM [^68Ga]Pentixafor, PC3-CXCR4 cells, 60 min 37 °C) was 218 ± 38 nM and the “Hill Slope, Competitive Binding Experiment” value (CXCR4 [7]; vs [^68Ga]Pentixafor, value ± SD) was 1.15 ± 0.34.
